In patent publication US9034381B2, “Process to control particle size” (Alphapharm Pty Ltd, priority 2005, dated 2015):
Where “and” joins values, the source holds several entries; their conditions need not be identical. Equal entries are not always repeated.

Test: Particle size measurement of milled material (Malvern Mastersizer S laser diffraction)
Assay type: physicochemical
[1] = Example 1 (comparative), feedstock, individual samples
[2] = Example 1 (comparative), feedstock
[3] = Example 1 (comparative), micronised in a single process, composite
[4] = Example 1 (comparative), micronised in a single process, individual samples
[5] = Example 2 (comparative), feedstock, individual samples
[6] = Example 2 (comparative), feedstock
[7] = Example 2 (comparative), micronised in a single process, composite
[8] = Example 2 (comparative), micronised in a single process, individual samples
[9] = Example 3 (comparative), feedstock
[10] = Example 3 (comparative), micronised in a single process, composite
[11] = Example 3 (comparative), micronised in a single process, individual samples
[12] = Example 4, micronised first pass
[13] = Example 4, micronised second pass

For `NC(=O)N1c2ccccc2CC(=O)c2ccccc21` [Oxcarbazepine], the “D[v, 0.5]” value [1] was 47.04 μm and 47.77 μm, the “D[v, 0.9]” value [1] was 98.61 μm and 101.96 μm and the “D[v, 0.5] mean” value [2] was 47.41 μm. For the same compound, the “D[v, 0.9] mean” value [2] was 100.29 μm, the “D[v, 0.5] composite (average)” value [3] was 15.27 μm and the “D[v, 0.9] composite (average)” value [3] was 53.30 μm. The “D[v, 0.5]” value [4] was 15.02 μm and 15.18 μm and 15.16 μm and 25.41 μm and 10.36 μm, the “D[v, 0.9]” value [4] was 52.08 μm and 51.71 μm and 51.94 μm and 67.97 μm and 44.13 μm and the “D[v, 0.5]” value [5] was 47.04 μm and 47.77 μm. For the same compound, the “D[v, 0.9]” value [5] was 98.61 μm and 101.96 μm, the “D[v, 0.5] mean” value [6] was 47.41 μm and the “D[v, 0.9] mean” value [6] was 100.29 μm. For the same compound, the “D[v, 0.5] composite (average)” value [7] was 5.95 μm, the “D[v, 0.9] composite (average)” value [7] was 30.47 μm and the “D[v, 0.5]” value [8] was 3.84 μm and 6.09 μm and 2.15 μm and 4.91 μm. For the same compound, the “D[v, 0.9]” value [8] was 19.56 μm and 31.90 μm and 11.56 μm and 27.25 μm, the “D[v, 0.5]” value [9] was 73.33 μm and the “D[v, 0.9]” value [9] was 323.50 μm. The “D[v, 0.5] composite” value [10] was 13.79 μm, the “D[v, 0.9] composite (average)” value [10] was 33.14 μm and the “D[v, 0.5]” value [11] was 7.50 μm and 19.51 μm and 15.09 μm and 15.64 μm. For the same compound, the “D[v, 0.9]” value [11] was 16.47 μm and 44.34 μm and 34.47 μm and 35.78 μm, the “D[v, 0.5] mean” value (Example 4, initial feedstock) was 65.06 μm and the “D[v, 0.9] mean” value (Example 4, initial feedstock) was 177.81 μm. For the same compound, the “D[v, 0.5] mean” value [12] was 33.89 μm, the “D[v, 0.9] mean” value [12] was 78.22 μm and the “D[v, 0.5] mean” value [13] was 16.30 μm. For the same compound, the “D[v, 0.9] mean” value [13] was 37.22 μm.
